Structures can show the parent of a compound that is named as a salt.
Assay: Influence of plasticiser type on the MFFT of Aquacoat dispersion
Assay type: physicochemical
Conditions: plasticiser added as emulsion
Experimental: (§1) Two different methods were used to evaluate the influence of plasticiser type, quantity and incorporation technique on the MFFT on Surelease® EA7100 and Aquacoat® ECD30. The minimum film-forming temperature (MFFT) is the lowest temperature at which the film-forming composition solidifies to form a film.
(§2) The first was by pouring the dispersions onto glass petri dishes. These dispersions were dried at ambient temperature (15-25° C.) in Class 2 cleanroom environment and inspected visually. They referred to the plasticisation level needed to form films at 20±5° C. The same numerical grading system was used to evaluate the mixed films of examples 2 to 4.
(§3) The second method determined the specific MFFT for each formulation. A MFFT bar was used. The hot water bath on one end of the MFFT bar was set at 46±1° C. and the cold water bath on the other end was set at 3±1° C. This created a temperature gradient of 32.5±1.0° C. to 12±1.0° C. across the spreading surface. The temperature gradient across the MFFT bar was allowed to equilibrate for at least two hours prior to use. The temperatures were measured at the beginning and at the end of each experiment using a Jenway 3070 digital-display thermometer. The apparatus was levelled using the adjustable support and a spirit level. The plasticised dispersion formulations were spread across the surface. Once spread, the film was allowed to form at room humidity. After the film had dried, the lowest temperature on the bar at which the film was still continuous was taken as the MFFT. If the film became discontinuous in between two temperature sampling points then the higher of the two sampled temperatures was taken to be the MFFT. All experiments were duplicated. The reported MFFT was an average of the four temperatures taken at the beginning and at the end of each duplicate experiment.
(§4) In the third technique, the required amount of plasticiser, Tween 80™ and the pseudolatex were mixed with a high speed Silverson homogeniser mixer for 3 minutes. The additional plasticiser content of compositions comprising Surelease® has between 0 and 12% by weight of the ethyl cellulose solids. For compositions comprising Aquacoat®, plasticiser contents of between 18 and 30% by weight of the ethyl cellulose solids were investigated. In all cases Tween 80™ was present in an amount of 0.01% by weight of the dispersion. The formulations were left overnight in sealed containers. Any formulations that remained foamy after overnight storage were not investigated further. Otherwise, the formulations were evaluated on the MFFT apparatus. The plasticisers used were dibutyl sebacate, triethyl citrate, triacetin, acetyl tributyl citrate, tributyl citrate, polypropylene glycol, glycerol and polyethylene glycol 400.
In the final technique, Tween 80, the plasticiser and water were premixed into a crude emulsion prior to addition to ethyl cellulose coating dispersions. A plasticiser emulsion was formed by mixing parts of plasticiser and water with 0.1% of Tween 80™ using a Silverson homogeniser mixer. The freshly mixed plasticiser emulsion was then added to the ethyl cellulose coating dispersion by magnetic stirring for 30 minutes. […] Only Aquacoat® ECD30 formulations were investigated. Aquacoat® ECD30 was plasticised with dibutyl sebacate, triethyl citrate, triacetin, acetyl tributyl citrate, tributyl citrate, polypropylene glycol, glycerol and polyethylene glycol 400. The basic formulations comprise between 18 and 36% of plasticiser by weight of solids in the dispersion and 0.1% w/w Tween 80.
In the case of `CCCCOC(=O)CC(CC(=O)OCCCC)(OC(C)=O)C(=O)OCCCC` [acetyl tributyl citrate], the “Lowering of the MFFT of Aquacoat®” value was “successful in lowering the MFFT”. For `CCCCOC(=O)CCCCCCCCC(=O)OCCCC` [dibutyl sebacate], the “Lowering of the MFFT of Aquacoat®” value was “successful in lowering the MFFT”. With `OCC(O)CO` [glycerol] the “Lowering of the MFFT of Aquacoat®” value was “unsuccessful”. With `CC(=O)OCC(COC(C)=O)OC(C)=O` [triacetin] the “Lowering of the MFFT of Aquacoat®” value was “lowering the MFFT”. In the case of `CCCCOC(=O)CC(O)(CC(=O)OCCCC)C(=O)OCCCC` [tributyl citrate], the “Lowering of the MFFT of Aquacoat®” value was “successful in lowering the MFFT”. With `CCOC(=O)CC(O)(CC(=O)OCC)C(=O)OCC` [triethyl citrate] the “Lowering of the MFFT of Aquacoat®” value was “lowering the MFFT”.

Assay: Influence of plasticiser type on the MFFT of Surelease dispersion
Assay type: physicochemical
Conditions: plasticiser added by high-shear mixing
Experimental: as §1, §2, §3, §4
For `CCCCOC(=O)CC(CC(=O)OCCCC)(OC(C)=O)C(=O)OCCCC` [acetyl tributyl citrate], the “Lowering of the MFFT of Surelease®” value was “successful in lowering the MFFT”. With `CCCCOC(=O)CCCCCCCCC(=O)OCCCC` [dibutyl sebacate] the “Lowering of the MFFT of Surelease®” value was “successful in lowering the MFFT”. With `OCC(O)CO` [glycerol] the “Lowering of the MFFT of Surelease®” value was “unsuccessful”. For `CCCCOC(=O)CC(O)(CC(=O)OCCCC)C(=O)OCCCC` [tributyl citrate], the “Lowering of the MFFT of Surelease®” value was “successful in lowering the MFFT”.

Reference: patent US6743445B2, “Low temperature coatings” (BTG International Limited, priority 1998, dated 2004)
